Reference: patent publication US20250161404A1, “METHODS AND COMPOSITIONS FOR THE CONTROL OF INFLAMMATION IN SKIN DISEASE” (VANDERBILT UNIVERSITY, priority 2023, published 2025)
≈ marks a conversion by molar mass, not a printed value. Values belong to the molecule of their own block, whether it stands above or below them. Where a SMILES comes first, the peptide text is derived from it. Bridges are numbered along the chain shown (N, C = ends).

Experiments:
[1] = target: Importin beta (Homo sapiens, UniProt Q14974); test: Binding studies (Table 3 comment)
Chain of Importin beta (Q14974 whole entry): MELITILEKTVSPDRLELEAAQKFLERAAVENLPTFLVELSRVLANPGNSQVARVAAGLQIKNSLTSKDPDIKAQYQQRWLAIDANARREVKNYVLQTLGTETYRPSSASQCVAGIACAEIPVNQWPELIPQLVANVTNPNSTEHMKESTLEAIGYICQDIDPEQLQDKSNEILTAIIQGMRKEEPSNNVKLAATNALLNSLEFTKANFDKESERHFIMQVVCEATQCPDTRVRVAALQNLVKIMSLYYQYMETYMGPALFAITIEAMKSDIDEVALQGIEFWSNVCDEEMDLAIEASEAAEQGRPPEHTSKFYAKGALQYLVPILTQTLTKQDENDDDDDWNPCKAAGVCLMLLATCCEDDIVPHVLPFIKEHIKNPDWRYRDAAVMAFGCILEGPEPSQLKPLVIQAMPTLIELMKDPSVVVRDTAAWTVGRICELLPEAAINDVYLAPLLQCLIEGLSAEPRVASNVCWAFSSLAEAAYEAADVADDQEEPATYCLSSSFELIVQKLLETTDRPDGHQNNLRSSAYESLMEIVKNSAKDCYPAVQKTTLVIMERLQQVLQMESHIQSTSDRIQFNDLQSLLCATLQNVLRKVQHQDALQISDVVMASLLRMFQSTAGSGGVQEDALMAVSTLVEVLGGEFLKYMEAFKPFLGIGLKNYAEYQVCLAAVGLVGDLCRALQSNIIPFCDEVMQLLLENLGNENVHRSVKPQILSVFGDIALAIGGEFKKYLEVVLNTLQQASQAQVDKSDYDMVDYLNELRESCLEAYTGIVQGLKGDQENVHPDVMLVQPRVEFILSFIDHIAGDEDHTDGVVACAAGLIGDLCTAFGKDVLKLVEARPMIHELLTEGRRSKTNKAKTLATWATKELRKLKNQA

[2] = Solubility of the peptide; type: physicochemical; settings: cSN50: depending on the method of synthesis and purification; read-out: soluble at levels of
Procedure: cSN50.1 is a cyclized peptide having the sequence of cSN50 with the exception that the tyrosine at position 18 of cSN50, adjacent to the first cysteine, has been removed. Methods of making and using cSN50 are described, for example, in U.S. Pat. Nos. 7,553,929 and 6,495,518. The amino acid sequence of cSN50.1 is […] (SEQ ID NO: 2). The tyrosine at position 18 was removed from the sequence of cSN50 to increase solubility. cSN50 is soluble at levels of ranging from 2.0 mg/mL to 40 mg/mL depending on the method of synthesis and purification whereas cSN50.1 is soluble at levels of at least 100 mg/ml. Any mimetics, derivatives, or homologs of cSN50.1 may be used in the compositions, methods, and kits disclosed herein. cSN50.1 is also encompassed by SEQ ID NO: 3, SEQ ID NO: 4 and SEQ ID NO: 5. Additional examples of NTMs include fragment-designed and synthesized peptides in which cargo is incorporated as two, rather than one, modules or cargos derived from intracellular proteins other than NFκB 1. Such additional examples include the sequences of SEQ ID NO: 6, SEQ ID NO: 7, SEQ ID NO: 8, and SEQ ID NO: 9.

[3] = Cell viability of cultured human keratinocytes; type: cell-based; settings: in all conditions, 48 hours after TNF-α/IL-17 challenge
[4] = long-term NTCI treatment; cited from earlier work
[5] = target: Imp beta (Homo sapiens, UniProt Q14974); test: Cell culture and preclinical studies (Table 3 comment)
Chain of Imp beta (Q14974 whole entry): as above

Molecule: AAVALLPAVLLALLAPVQRDEQKLMP (Description of sequence: Peptide, name of peptide: SM12)
- Comments: importin selectivity [1]: Importin beta-

Molecule: CSCC[C@@H]1NC(=O)[C@H](CC(C)C)NC(=O)[C@H](CCCCN)NC(=O)[C@H](CCC(N)=O)NC(=O)[C@H](CCCNC(=N)N)NC(=O)[C@H](CCCCN)NC(=O)[C@H](CCCNC(=N)N)NC(=O)[C@H](CCC(N)=O)NC(=O)[C@H](C(C)C)NC(=O)[C@@H](NC(=O)[C@@H]2CCCN2C(=O)[C@H](C)NC(=O)[C@H](CC(C)C)NC(=O)[C@H](CC(C)C)NC(=O)[C@H](C)NC(=O)[C@H](CC(C)C)NC(=O)[C@H](CC(C)C)NC(=O)[C@@H](NC(=O)[C@H](C)NC(=O)[C@@H]2CCCN2C(=O)[C@H](CC(C)C)NC(=O)[C@H](CC(C)C)NC(=O)[C@H](C)NC(=O)[C@@H](NC(=O)[C@H](C)NC(=O)[C@H](C)N)C(C)C)C(C)C)CSSC[C@@H](C(=O)O)NC(=O)[C@@H]2CCCN2C1=O [cSN50.1] (H-AAVALLPAVLLALLAPCVQRKRQKLMPC-OH; disulfide 17-28; N-terminus and C-terminus assumed)
- solubility [2]: ≥ 100 mg/mL
- viability at 48 h [3]: > 80%
- apparent toxicity [4]: lack of apparent toxicity

Molecule: AAVALLPAVLLALLAPCVQRDEQKLMPC [cSN50.1β]
- Comments: importin selectivity [5]: Imp beta-selective

- solubility [2]: 2 to 40 mg/mL (≈ 0.635 to 12.7 mM)
Molecule: CSCC[C@@H]1NC(=O)[C@H](CC(C)C)NC(=O)[C@H](CCCCN)NC(=O)[C@H](CCC(N)=O)NC(=O)[C@H](CCCNC(=N)N)NC(=O)[C@H](CCCCN)NC(=O)[C@H](CCCNC(=N)N)NC(=O)[C@H](CCC(N)=O)NC(=O)[C@H](C(C)C)NC(=O)[C@H](Cc2ccc(O)cc2)NC(=O)[C@@H](NC(=O)[C@@H]2CCCN2C(=O)[C@H](C)NC(=O)[C@H](CC(C)C)NC(=O)[C@H](CC(C)C)NC(=O)[C@H](C)NC(=O)[C@H](CC(C)C)NC(=O)[C@H](CC(C)C)NC(=O)[C@@H](NC(=O)[C@H](C)NC(=O)[C@@H]2CCCN2C(=O)[C@H](CC(C)C)NC(=O)[C@H](CC(C)C)NC(=O)[C@H](C)NC(=O)[C@@H](NC(=O)[C@H](C)NC(=O)[C@H](C)N)C(C)C)C(C)C)CSSC[C@@H](C(=O)O)NC(=O)[C@@H]2CCCN2C1=O [cSN50] (H-AAVALLPAVLLALLAPCYVQRKRQKLMPC-OH; disulfide 17-29; N-terminus and C-terminus assumed)
